# Experimental data as given in US6989143B1, “Depletion method of blood plasma ascorbate” (priority 2000, dated 2006).
# Key:
# [1] = system: pre-leukemia, or myelodysplastic syndromes(MDS); details: in vitro; cited from earlier work
# leukemic cells = details: in vitro, small number of patients; cited from earlier work
# [2] = Plasma ascorbate level in mice given sodium ascorbate or L-gulono-γ-lactone (HPLC-ECD); details: 5 mmole/kg, intraperitoneal
# Procedure: Time-dependent changes of plasma ascorbate level in mice given sodium ascorbate (-o-) and L-gulono-γ-lactone (-•-). Drugs were dissolved in distilled water and administered by intraperitoneal injections, both at 5 mmole/kg. Blood was taken from each animal time-sequentially for the assay of plasma ascorbate with HPLC-ECD, as described in MATERIALS AND METHODS. Zero time control animals were given 0.2 ml of normal saline. Data represent Mean±SD (n=3−5).
# Specific pathogen-free female BALB/c mice (body weight, ca. 25 g) were used in the present study. Animals were obtained from Dae-Han Laboratory Animal Center (Daejeon, Korea) and cared for according to the ILAR guidelines in the animal care facility of Samsung Biomedical Research Center (Seoul, Korea). They were fed a diet from Jell Laboratory Chow (Seoul, Korea). Feed and water were offered ad libitum.
# The animal was anesthetized with diethyl ether vapour and blood was obtained by choroidal venous plexus. About one ml of blood was collected into a microcentrifuge tube that contained 50 μl of 130 mM sodium citrate as an anticoagulant. […] The ascorbate content in the supernatant was measured directly by HPLC method. An aliquot of the sample was treated with 100 mM dithiothreitol at neutral pH to reduce dehydroascorbate to ascorbate, and then total ascorbate content was measured. […]
SMILES,share of MDS showing growth enhancement with LAA [1],share of MDS showing growth suppression with LAA [1],fraction of patients whose leukemic cell growth was modulated by LAA (leukemic cells),return of accumulated plasma ascorbate to normal levels [2]
"O=C1O[C@H]([C@@H](O)CO)C(O)=C1O [LAA, L-ascorbic acid]",30%,16%,approximately ½,
"O=C1O[C@H]([C@@H](O)CO)C([O-])=C1O.[Na+] [ascorbate, Sodium ascorbate]",,,,rapidly diminished to normal levels within a few hours
